The text below walks through data of patent publication US20240408216A1, “PROTEIN INHIBITOR OR DEGRADING AGENT, PHARMACEUTICAL COMPOSITION CONTAINING SAME AND PHARMACEUTICAL USE” (JING MEDICINE TECHNOLOGY (SHANGHAI) LTD., priority 2021, published 2024).

Molecules are shown by their SMILES.

T1 sequence (P00533 with tags, fused parts or gaps DEL746-750/C797S, form open): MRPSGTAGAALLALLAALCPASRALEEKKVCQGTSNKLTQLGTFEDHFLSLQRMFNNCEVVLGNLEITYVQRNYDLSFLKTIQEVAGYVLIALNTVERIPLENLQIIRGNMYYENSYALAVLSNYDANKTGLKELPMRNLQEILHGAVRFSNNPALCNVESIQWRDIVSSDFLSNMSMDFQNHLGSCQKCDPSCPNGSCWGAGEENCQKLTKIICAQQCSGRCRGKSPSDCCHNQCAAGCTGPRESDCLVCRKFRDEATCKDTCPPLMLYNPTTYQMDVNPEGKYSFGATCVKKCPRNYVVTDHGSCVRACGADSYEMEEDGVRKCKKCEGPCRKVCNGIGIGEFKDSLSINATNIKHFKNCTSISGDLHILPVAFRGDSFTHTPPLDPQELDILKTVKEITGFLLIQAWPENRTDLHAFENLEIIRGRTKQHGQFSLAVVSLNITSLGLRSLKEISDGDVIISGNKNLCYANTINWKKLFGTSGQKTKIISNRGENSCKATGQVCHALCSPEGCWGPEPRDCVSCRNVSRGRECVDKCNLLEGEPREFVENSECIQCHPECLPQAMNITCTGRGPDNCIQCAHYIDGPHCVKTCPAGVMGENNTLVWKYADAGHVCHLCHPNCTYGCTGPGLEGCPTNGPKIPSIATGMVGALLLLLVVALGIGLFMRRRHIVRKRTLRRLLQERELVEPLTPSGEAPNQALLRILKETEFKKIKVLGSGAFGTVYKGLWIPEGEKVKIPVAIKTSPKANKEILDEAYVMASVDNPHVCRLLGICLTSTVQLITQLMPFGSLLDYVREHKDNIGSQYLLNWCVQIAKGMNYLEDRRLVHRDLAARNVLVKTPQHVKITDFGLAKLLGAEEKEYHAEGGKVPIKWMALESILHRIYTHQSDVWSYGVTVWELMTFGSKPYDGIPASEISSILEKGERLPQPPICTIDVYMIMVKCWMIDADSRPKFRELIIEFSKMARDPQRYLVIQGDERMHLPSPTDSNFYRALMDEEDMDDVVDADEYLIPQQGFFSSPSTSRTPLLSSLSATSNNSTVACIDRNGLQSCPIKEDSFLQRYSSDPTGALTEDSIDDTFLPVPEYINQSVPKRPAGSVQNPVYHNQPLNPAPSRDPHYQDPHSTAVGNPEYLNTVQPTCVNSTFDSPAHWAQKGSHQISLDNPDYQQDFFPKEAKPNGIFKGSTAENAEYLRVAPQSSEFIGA

The first experiment concerns A431. Description: Cell proliferation IC50 assay (Cell Titer GLO), A431 cells. Conditions: Homo sapiens, A-431; Table 6; A431, 72 h; read-out: A431 IC50. The format is cell-based. The method in brief: (§1)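 Each cell line, plated at 2000-4000 cells/well, received serially diluted compound for 72 h (37° C, 5% CO2) before luminescent ATP-based viability detection. IC50 values were derived from growth inhibition relative to DMSO-treated and cell-free blank wells.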
Background: Cellular ATP, detected with luciferase, serves as a proxy for viable cell number.
With `COc1cc(N2CCC(N3CCN(CCC#Cc4cccc5c4CN(C4CCC(=O)NC4=O)C5=O)CC3)CC2)c(C(N)=O)cc1Nc1ncc(Cl)c(Nc2ccccc2P(C)(C)=O)n1` (stereo not drawn) [Example E61], the IC50 (as a rule, the concentration that inhibits the measured activity by half) is above 4000 nM.

As for `COc1cc(N2CCC(N3CCN(CCCCOc4cccc5c4CN(C4CCC(=O)NC4=O)C5=O)CC3)CC2)c(CC#N)cc1Nc1ncc(Cl)c(Nc2ccccc2P(C)(C)=O)n1` (stereo not drawn) [Example E179], the IC50 is 1160 nM.

`CCc1cc(Nc2ncc(Cl)c(Nc3ccccc3P(C)(C)=O)n2)c(OC)cc1N1CCC(N2CCN(CCCCCc3ccc4c(c3)CN(C3CCC(=O)NC3=O)C4=O)CC2)CC1` (stereo not drawn) [Example E38]: the IC50 was 1020 nM.

On to `COc1cc(N2CCC(N3CCN(CCCCOc4cccc5c4CN(C4CCC(=O)NC4=O)C5=O)CC3)CC2)c(C2CC2)cc1Nc1ncc(Cl)c(Nc2ccccc2P(C)(C)=O)n1` (stereo not drawn) [Example E35], for which the IC50 stood at 1640 nM.

Regarding `CCc1cc(Nc2ncc(Cl)c(Nc3ccccc3P(C)(C)=O)n2)c(OC)cc1N1CCC2(CCN(CCCCOc3ccc(NC4CCC(=O)NC4=O)cc3)CC2)CC1` (stereo not drawn) [Example E89], the half-inhibitory concentration (IC50) was determined as 3650 nM.

For `COc1cc(N2CCC(N3CCN(CCCCOc4cccc5c4CN(C4CCC(=O)NC4=O)C5=O)CC3)CC2)c(C#N)cc1Nc1ncc(Cl)c(Nc2ccccc2P(C)(C)=O)n1` (stereo not drawn) [Example E103], the IC50 turned out to be 1010 nM.

A further experiment concerns BaF3 (EGFR WT). Kind of experiment: Cell proliferation IC50 assay (Cell Titer GLO), BaF3 WT cells. The format is cell-based. Conditions: Mus musculus, Ba/F3 EGFR, Table 6, 10 ng/ml EGF, 72 h. The gist of the method: as §1
`COc1cc(N2CCC(N3CCN(CCC#Cc4cccc5c4CN(C4CCC(=O)NC4=O)C5=O)CC3)CC2)c(C(N)=O)cc1Nc1ncc(Cl)c(Nc2ccccc2P(C)(C)=O)n1` (stereo not drawn) [Example E61]: the 50% inhibitory concentration (IC50) was above 4000 nM.

Molecule `COc1cc(N2CCC(N3CCN(CCCCOc4cccc5c4CN(C4CCC(=O)NC4=O)C5=O)CC3)CC2)c(CC#N)cc1Nc1ncc(Cl)c(Nc2ccccc2P(C)(C)=O)n1` (stereo not drawn) [Example E179] came in with an IC50 of 153 nM.

Molecule `CCc1cc(Nc2ncc(Cl)c(Nc3ccccc3P(C)(C)=O)n2)c(OC)cc1N1CCC(N2CCN(CCCCCc3ccc4c(c3)CN(C3CCC(=O)NC3=O)C4=O)CC2)CC1` (stereo not drawn) [Example E38] displayed an IC50 of 461 nM.

For `COc1cc(N2CCC(N3CCN(CCCCOc4cccc5c4CN(C4CCC(=O)NC4=O)C5=O)CC3)CC2)c(C2CC2)cc1Nc1ncc(Cl)c(Nc2ccccc2P(C)(C)=O)n1` (stereo not drawn) [Example E35], the IC50 is 2500 nM.

Regarding `CCc1cc(Nc2ncc(Cl)c(Nc3ccccc3P(C)(C)=O)n2)c(OC)cc1N1CCC2(CCN(CCCCOc3ccc(NC4CCC(=O)NC4=O)cc3)CC2)CC1` (stereo not drawn) [Example E89], the IC50 is 1150 nM.

As to `COc1cc(N2CCC(N3CCN(CCCCOc4cccc5c4CN(C4CCC(=O)NC4=O)C5=O)CC3)CC2)c(C#N)cc1Nc1ncc(Cl)c(Nc2ccccc2P(C)(C)=O)n1` (stereo not drawn) [Example E103], the 50% inhibitory concentration (IC50) came to 639 nM.

The next experiment has as its target T1, BaF3 (EGFR Del19/C797S) (Homo sapiens, UniProt P00533, C797S, cells depend on it, form not given).
T1 construct: BaF3 (EGFR Del19/C797S)|DC|RPMI1640 + 10% FBS
Description: Cell proliferation IC50 assay (Cell Titer GLO), BaF3 DC cells. Conditions: Table 6, 72 h. In kind it is cell-based, mouse. The gist of the method: as §1
As to `COc1cc(N2CCC(N3CCN(CCC#Cc4cccc5c4CN(C4CCC(=O)NC4=O)C5=O)CC3)CC2)c(C(N)=O)cc1Nc1ncc(Cl)c(Nc2ccccc2P(C)(C)=O)n1` (stereo not drawn) [Example E61], 37.8 nM corresponded to half-maximal inhibition (IC50).

Molecule `COc1cc(N2CCC(N3CCN(CCCCOc4cccc5c4CN(C4CCC(=O)NC4=O)C5=O)CC3)CC2)c(CC#N)cc1Nc1ncc(Cl)c(Nc2ccccc2P(C)(C)=O)n1` (stereo not drawn) [Example E179] registered an IC50 of 1.3 nM.

Molecule `CCc1cc(Nc2ncc(Cl)c(Nc3ccccc3P(C)(C)=O)n2)c(OC)cc1N1CCC(N2CCN(CCCCCc3ccc4c(c3)CN(C3CCC(=O)NC3=O)C4=O)CC2)CC1` (stereo not drawn) [Example E38] had an IC50 of 3.4 nM.

Turning to `COc1cc(N2CCC(N3CCN(CCCCOc4cccc5c4CN(C4CCC(=O)NC4=O)C5=O)CC3)CC2)c(C2CC2)cc1Nc1ncc(Cl)c(Nc2ccccc2P(C)(C)=O)n1` (stereo not drawn) [Example E35], the IC50 stood at 8.9 nM.

In turn, `CCc1cc(Nc2ncc(Cl)c(Nc3ccccc3P(C)(C)=O)n2)c(OC)cc1N1CCC2(CCN(CCCCOc3ccc(NC4CCC(=O)NC4=O)cc3)CC2)CC1` (stereo not drawn) [Example E89] came in with an IC50 of 79.9 nM.

In turn, `COc1cc(N2CCC(N3CCN(CCCCOc4cccc5c4CN(C4CCC(=O)NC4=O)C5=O)CC3)CC2)c(C#N)cc1Nc1ncc(Cl)c(Nc2ccccc2P(C)(C)=O)n1` (stereo not drawn) [Example E103] returned an IC50 of 4.6 nM.

The test system of another experiment is BaF3 (EGFR Del19/T790M/C797S). Kind of experiment: Cell proliferation IC50 assay (Cell Titer GLO), BaF3 DTC cells. The format is cell-based. The settings on record: Mus musculus, Ba/F3 EGFR-Del19/T790M/C797S, Table 6, 72 h. The procedure: IC50 of compounds in the present invention was determined by Cell Titer GLO reagent from Promega. The procedures are as follows:
Tumor cells were cultured in specified medium in an incubator at 37° C. and 5% CO2. The cells were passaged periodically. Cells at the logarithmic growth phase were collected for plating at a density of 2000-4000 cells/well. The next day, the compounds of the present invention were serially diluted and added to the cells, with DMSO being the negative control and the culture media without cells being the blank control. The plate was incubated in the incubator for 72 h. The cell viability assay was performed by adding the detection reagents to the cell culture media according to Cell Titer GLO reagent instructions and detecting luminescent signals on an EnVision microplate reader (PerkinElmer).
Inhibition of cell growth by the compounds of the present invention was plotted by Prism Graphpad software for statistically calculating the IC50 of the compound of the present invention.
`COc1cc(N2CCC(N3CCN(CCC#Cc4cccc5c4CN(C4CCC(=O)NC4=O)C5=O)CC3)CC2)c(C(N)=O)cc1Nc1ncc(Cl)c(Nc2ccccc2P(C)(C)=O)n1` (stereo not drawn) [Example E61] showed an IC50 of 280 nM.

In turn, `COc1cc(N2CCC(N3CCN(CCCCOc4cccc5c4CN(C4CCC(=O)NC4=O)C5=O)CC3)CC2)c(CC#N)cc1Nc1ncc(Cl)c(Nc2ccccc2P(C)(C)=O)n1` (stereo not drawn) [Example E179] registered an IC50 of 5.94 nM.

For `CCc1cc(Nc2ncc(Cl)c(Nc3ccccc3P(C)(C)=O)n2)c(OC)cc1N1CCC(N2CCN(CCCCCc3ccc4c(c3)CN(C3CCC(=O)NC3=O)C4=O)CC2)CC1` (stereo not drawn) [Example E38], inhibition was half-maximal at 6.23 nM (IC50).

On to `COc1cc(N2CCC(N3CCN(CCCCOc4cccc5c4CN(C4CCC(=O)NC4=O)C5=O)CC3)CC2)c(C2CC2)cc1Nc1ncc(Cl)c(Nc2ccccc2P(C)(C)=O)n1` (stereo not drawn) [Example E35], for which the IC50 turned out to be 5.59 nM.

`CCc1cc(Nc2ncc(Cl)c(Nc3ccccc3P(C)(C)=O)n2)c(OC)cc1N1CCC2(CCN(CCCCOc3ccc(NC4CCC(=O)NC4=O)cc3)CC2)CC1` (stereo not drawn) [Example E89] showed a half-maximal inhibitory concentration (IC50) of 89.5 nM.

On to `COc1cc(N2CCC(N3CCN(CCCCOc4cccc5c4CN(C4CCC(=O)NC4=O)C5=O)CC3)CC2)c(C#N)cc1Nc1ncc(Cl)c(Nc2ccccc2P(C)(C)=O)n1` (stereo not drawn) [Example E103], for which 5.54 nM corresponded to half-maximal inhibition (IC50).

The next experiment deals with BaF3 (EGFR L858R/T790M/C797S). Description: Cell proliferation IC50 assay (Cell Titer GLO), BaF3 LTC cells. The format is cell-based. The settings on record: Mus musculus, Ba/F3 EGFR, Table 6, 72 h. The method in brief:
as §1
`COc1cc(N2CCC(N3CCN(CCC#Cc4cccc5c4CN(C4CCC(=O)NC4=O)C5=O)CC3)CC2)c(C(N)=O)cc1Nc1ncc(Cl)c(Nc2ccccc2P(C)(C)=O)n1` (stereo not drawn) [Example E61]: the IC50 was determined as 621 nM.

`COc1cc(N2CCC(N3CCN(CCCCOc4cccc5c4CN(C4CCC(=O)NC4=O)C5=O)CC3)CC2)c(CC#N)cc1Nc1ncc(Cl)c(Nc2ccccc2P(C)(C)=O)n1` (stereo not drawn) [Example E179] came in with an IC50 of 44.6 nM.

The molecule `CCc1cc(Nc2ncc(Cl)c(Nc3ccccc3P(C)(C)=O)n2)c(OC)cc1N1CCC(N2CCN(CCCCCc3ccc4c(c3)CN(C3CCC(=O)NC3=O)C4=O)CC2)CC1` (stereo not drawn) [Example E38] had an IC50 of 16.5 nM.

The molecule `COc1cc(N2CCC(N3CCN(CCCCOc4cccc5c4CN(C4CCC(=O)NC4=O)C5=O)CC3)CC2)c(C2CC2)cc1Nc1ncc(Cl)c(Nc2ccccc2P(C)(C)=O)n1` (stereo not drawn) [Example E35] registered an IC50 of 25.7 nM.

In turn, `CCc1cc(Nc2ncc(Cl)c(Nc3ccccc3P(C)(C)=O)n2)c(OC)cc1N1CCC2(CCN(CCCCOc3ccc(NC4CCC(=O)NC4=O)cc3)CC2)CC1` (stereo not drawn) [Example E89] returned an IC50 of 1040 nM.

Turning to `COc1cc(N2CCC(N3CCN(CCCCOc4cccc5c4CN(C4CCC(=O)NC4=O)C5=O)CC3)CC2)c(C#N)cc1Nc1ncc(Cl)c(Nc2ccccc2P(C)(C)=O)n1` (stereo not drawn) [Example E103], 21.8 nM corresponded to half-maximal inhibition (IC50).
